The source of these data is the supplement of paper PMC10883282.

± gives the standard deviation of the averaged measurements.

The test concerns HT1080. In words: relative viability vs DMSO control (72 h) (fraction); higher = more viable cells. The procedure, abridged:
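Sarcoma cell lines in 384-well plates, seeded to reach 80–90% confluence, were given compound after 24 h and kept 72 h at 37 °C, 5% CO2, with 0.1% DMSO vehicle and a 5 µM positive control. Relative viability came from ATPLite as percent growth, averaged over up to triplicate wells. On the rescaled values, 1 equals full and 0 equals none.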

Consider `C[C@]1(O)C[C@@H](c2nc(-c3ccc4ccc(-c5ccccc5)nc4c3)c3c(N)nccn32)C1` [Linsitinib], for which the relative viability amounted to 1.044 ± 0.0049 (0.00017 µM); 1.09 ± 0.025 (0.00051 µM); 1.045 ± 0.0029 (0.00152 µM); 1.057 ± 0.009 (0.00457 µM); 1.04 ± 0.047 (0.01372 µM); 1.03 ± 0.018 (0.04115 µM). For the same compound, the relative viability by setting is: (0.1235 µM) 1.03 ± 0.023; (0.3704 µM) 0.988 ± 0.025; (1.111 µM) 0.968 ± 0.043; (3.333 µM) 0.968 ± 0.025; (10 µM) 0.881 ± 0.017.
Regarding `C=CC(=O)N1CCC([C@@H]2CCNc3c(C(N)=O)c(-c4ccc(Oc5ccccc5)cc4)nn32)CC1` [Zanubrutinib], the relative viability came to 1.04 ± 0.022 (0.00017 µM); 1.05 ± 0.022 (0.00051 µM); 1.04 ± 0.04 (0.00152 µM); 1.03 ± 0.024 (0.00457 µM); 1.03 ± 0.026 (0.01372 µM); 1.03 ± 0.031 (0.04115 µM). In addition, the relative viability is, setting by setting: (0.1235 µM) 1.03 ± 0.028; (0.3704 µM) 1.05 ± 0.071; (1.111 µM) 1.017 ± 0.0087; (3.333 µM) 1.02 ± 0.033; (10 µM) 1.02 ± 0.026.
Consider `Cn1cc(-c2cc3c(N4CCN(c5ncc([C@@](C)(N)c6ccc(F)cc6)cn5)CC4)ncnn3c2)cn1` [Avapritinib], for which the relative viability runs as follows: (0.00017 µM) 0.967 ± 0.065; (0.00051 µM) 1.03 ± 0.019; (0.00152 µM) 0.98 ± 0.042; (0.00457 µM) 1.01 ± 0.041; (0.01372 µM) 1 ± 0.017; (0.04115 µM) 1.01 ± 0.039. Also, the relative viability is, setting by setting: (0.1235 µM) 1.03 ± 0.048; (0.3704 µM) 1.01 ± 0.013; (1.111 µM) 0.908 ± 0.029; (3.333 µM) 0.905 ± 0.014; (10 µM) 0.826 ± 0.023.
For `CC(=O)Nc1cccc(-n2c(=O)n(C3CC3)c(=O)c3c(Nc4ccc(I)cc4F)n(C)c(=O)c(C)c32)c1` [Trametinib], the relative viability is 1.1 ± 0.022 (0.00017 µM); 1.119 ± 0.0055 (0.00051 µM); 1.039 ± 0.0014 (0.00152 µM); 0.981 ± 0.041 (0.00457 µM); 0.638 ± 0.029 (0.01372 µM); 0.537 ± 0.017 (0.04115 µM). The relative viability by setting is: (0.1235 µM) 0.478 ± 0.032; (0.3704 µM) 0.377 ± 0.011; (1.111 µM) 0.351 ± 0.02; (3.333 µM) 0.334 ± 0.018; (10 µM) 0.296 ± 0.014.
